Consider seven compounds from patent US12351565B2, “Aromatic compound and preparation method therefor and use thereof” (SHANGHAI JIANHE PHARMACEUTICAL & TECHNOLOGY CO. LTD., priority 2018, dated 2025).

Molecules are shown by their SMILES. Counter-ions that a name gives are not always drawn. Like-named read-outs stand apart in the source and are kept apart here.

The subject of assay [1] is C57 mice. Briefly: Forced swimming experiment, intraperitoneal administration to mice. In kind it is in vivo. To be noted: for inhibition in vivo at 10 mg/kg: Mus musculus, ip. The method, then: The forced-swimming test is currently the most widely used classic method to evaluate the antidepressant effects of compounds in rodents. […] The time in immobile state of experimental animal is observed and recorded, which can be used to evaluate the effect of antidepressant compounds.
1 h and 24 h after a single intraperitoneal administration of 10 mg/kg, forced swimming tests were respectively carried out to investigate the effects of different compounds on depression-like behaviors of C57 mice.
(§1) Experimental animals were 6-week aged C57 mice, male, and C57 mice were purchased from Shanghai SLAC Laboratory Animal Co., Ltd., with a body weight of 20.45±0.19 g. Before the experiment, they arrived at the Animal Feeding Center of Shanghai Institute of Materia Medica, Chinese Academy of Sciences (Animal Production License: SCXK9[Shanghai]2004-0002, usage license: SYXK[Shanghai]2003-0029), and adapted for 3 days or more in animal facilities. They were bred at 6 animals/cage. The breeding environment was room temperature 23±0.2° C., with 12/12 hours alternation of day and night. Before the behavioral test, the animals should be moved to the behavioral test operation room 2 hours in advance to adapt to the environment and reduce their tension.
Preparation of the test product: each test compound was accurately weighed and dissolved in 0.9% NaCl solution, mixed thoroughly, and prepared as a 1 mg/ml solution, set aside.
(§2) 24 hours before the administration, the mice were placed in a cylindrical tank to adapt to the aquatic environment for 10 min. On the day of the behavioral test, the animals were respectively administered intraperitoneally once at 1 h and 24 h before the behavioral test. The mice were placed individually into a cylindrical glass tank with a height of 30 cm and a diameter of 20 cm. The water depth in the tank was 15 cm, so that the animals could not escape from the glass tank and their feet and tails could not touch the bottom of the tank, the water temperature was 23° C.-25° C. A 6 minute video was taken after the mouse entered into water. Since most animals were very active in the first two minutes, the immobility time in the following 4 minute were calculated (criterion of immobility: the mouse stops struggling in the water, stays still and has small limbs movement to maintain balance or to keep a floating state).
The antidepressant effect of a compound was evaluated by the ability of the compound to reduce the immobility time of the animal in the forced swimming test as compared with the blank group. The shorter the immobility time of the animal to be tested, the higher the inhibition rate and the stronger the antidepressant activity. Inhibition rate1 h(%)=immobility time(blank, 1 h)−immobility time(administration, 1 h)/immobility time(blank, 1 h)×100% Inhibition rate24 h(%)=immobility time(blank, 24 h)−immobility time(administration, 24 h)/immobility time(blank, 24 h)×100%

Assay [2] concerns C57 mice. As to the kind of experiment: Forced swimming experiment, oral administration to mice. In kind it is in vivo. As to conditions: for 1 h inhibition rate / 24 h inhibition rate: inhibition of immobility time, C57 mice; for 1 h inhibition rate: forced swimming 1 h after single oral (intragastric) 20 mg/kg; for 24 h inhibition rate: forced swimming 24 h after single oral (intragastric) 20 mg/kg. As to the method: 1 h and 24 h after a single oral administration of 20 mg/kg, forced swimming experiments were then carried out to investigate the effects of different compounds on depression-like behavior in C57 mice.
as §1, with “male,” for “male, and”
Preparation of the test product: each test compound was accurately weighed and dissolved in 0.9% NaCl solution, mixed thoroughly, and prepared into 1 mg/ml and 2 mg/ml solutions respectively, and set aside.
as §2, with “intragastrically” for “intraperitoneally”
The antidepressant effect of a compound was evaluated by the ability of the compound to reduce the immobility time of the animal in the forced swimming test as compared with the blank group. Inhibition rate1 h(%)=immobility time(blank, 1 h)−immobility time(administration, 1 h)/immobility time(blank, 1 h)×100% Inhibition rate24h(%)=immobility time(blank, 24 h)−immobility time(administration, 24 h)/immobility time(blank, 24 h)×100%

[3] abbreviates: 1 h, read-out: 1 h inhibition rate.
Setting [4] is: 24 h, read-out: 24 h inhibition rate.

On to `NC1(c2c(F)ccc(F)c2F)CCCC(O)C1=O` (stereo not shown) [Compound 71, 2-amino-6-hydroxy-2-(2,3,6-trifluorophenyl)cyclohexane-1-one hydrochloride], for which the inhibition in vivo at 10 mg/kg was found to be 24.2 ± 4.7% with C57 mice [1] (setting [3]) and 57.4 ± 4.4% with C57 mice [1] (setting [4]).
In the case of `Cl.NC1(c2cccc(OC(F)(F)F)c2F)CCCC(O)C1=O` (stereo not shown) [Compound 59, 2-amino-2-(2-fluoro-3-(trifluoromethoxy)phenyl)-6-hydroxycyclohexane-1-one hydrochloride], the inhibition in vivo at 10 mg/kg was found to be 32 ± 2.2% in the assay with C57 mice [1] (setting [3]) and 40.3 ± 4.9% in the assay on C57 mice [1] (setting [4]). The “1 h inhibition rate” value in the assay with C57 mice [2] is recorded as 28.6 ± 1.8%. For the same compound, the “24 h inhibition rate” value in the assay with C57 mice [2] is recorded as 36.1 ± 1.6%.
On to `CNC1(c2cccc(OC(F)(F)F)c2)CCCC(O)C1=O` (stereo not shown) [Compound 39, 6-hydroxy-2-methylamino-2-(3-trifluoromethoxyphenyl)cyclohexane-1-one hydrochloride], for which the inhibition in vivo at 10 mg/kg in the assay with C57 mice [1] (setting [3]) was 46.6 ± 1%; with C57 mice [1] (setting [4]), 49.1 ± 3.7%.
On to `Cl.N[C@]1(c2cccc(OC(F)(F)F)c2F)CCC[C@H](O)C1=O` [Compound 65, (2S,6S)-2-amino-2-(2-fluoro-3-(trifluoromethoxy)phenyl)-6-hydroxycyclohexane-1-one hydrochloride], for which, in the assay on C57 mice [2], the “1 h inhibition rate” value worked out at 23.8 ± 0.6% and the “24 h inhibition rate” value was determined as 32.0 ± 2.9%.
For `Cl.NC1(c2cc(F)ccc2F)CCCC(O)C1=O` (stereo not shown) [Comparative compound 1, reference compound], the inhibition in vivo at 10 mg/kg was 17.4% with C57 mice [1] (setting [3]) and 10.6% in the assay on C57 mice [1] (setting [4]). Further, the “1 h inhibition rate” value with C57 mice [1] (inhibition of immobility time, forced swimming 1 h after single intraperitoneal 10 mg/kg, C57 mice) is given as 17.4 ± 0.2%. The “24 h inhibition rate” value in the assay on C57 mice [1] (inhibition of immobility time, forced swimming 24 h after single intraperitoneal 10 mg/kg, C57 mice) is reported as 10.6 ± 1.2%.
Take `N#Cc1cccc(C2(N)CCCC(O)C2=O)c1` (stereo not shown) [Compound 53, 3-(1-amino-3-hydroxy-2-oxocyclohexane)benzonitrile trifluoroacetate]: the results for the inhibition in vivo at 10 mg/kg in the assay with C57 mice [1] (setting [3]) and in the assay with C57 mice [1] (setting [4]) were 50.9 ± 2% and 39.6 ± 3.2%, respectively.
With `CNCCC(Oc1ccc(C(F)(F)F)cc1)c1ccccc1` (stereo not shown) [Fluoxetine, fluoxetine, reference compound], the “antidepressant effect in the forced swimming experiment” value was “no obvious antidepressant effect” in the assay with C57 mice [1] (1 hour and 24 hours, intraperitoneal 10 mg/kg, in words); “no antidepressant effect was shown” with C57 mice [2] (1 hour and 24 hours, oral administration, in words). For the same compound, the inhibition in vivo at 10 mg/kg was -4.6 ± 2.3% in the assay with C57 mice [1] (inhibition of immobility time, forced swimming 1 h after single intraperitoneal 10 mg/kg, C57 mice, read-out: 1 h inhibition rate) and 4.6 ± 1.8% in the assay on C57 mice [1] (inhibition of immobility time, forced swimming 24 h after single intraperitoneal 10 mg/kg, C57 mice, read-out: 24 h inhibition rate). In addition, the “1 h inhibition rate” value in the assay with C57 mice [2] stood at 2.2 ± 1.2%. In addition, in the assay with C57 mice [2], the “24 h inhibition rate” value is given as 1.8 ± 1.3%.
